Measurements as given in the supplement of paper PMC10307832.

Key:
Test in all cases: relative viability (nuclei count vs DMSO), 5 days (fraction); higher = more cells survive
5-Fluorouracil + AZD7762 = compound: O=c1[nH]cc(F)c(=O)[nH]1 [5-Fluorouracil] + NC(=O)Nc1cc(-c2cccc(F)c2)sc1C(=O)N[C@H]1CCCNC1 [AZD7762] (partner 0.2 µM)
In short: (§1)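 A single step with final 0.05% Triton X-100, 1% formaldehyde and 1 ug/ml Hoechst fixed the cells and stained nuclei 5 days after treatment. Lung cancer cell lines in 1536-well plates had been treated by pin tool the day after seeding with one drug alone or a fixed anchor-drug dose plus five library-drug doses (not always all listed) in √10 steps, and nuclei were counted on 4× images. Relative viability is the ratio of nuclei in treated wells to nuclei in vehicle wells, taken as the median of duplicate plates.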

Sulindac + Palbociclib = compound: CC1=C(CC(=O)O)c2cc(F)ccc2/C1=C\c1ccc([S+](C)[O-])cc1 [Sulindac] + CC(=O)c1c(C)c2cnc(Nc3ccc(N4CCNCC4)cn3)nc2n(C2CCCC2)c1=O [Palbociclib] (partner 0.5 µM)
In short: as §1

Sulindac + Olaparib = compound: CC1=C(CC(=O)O)c2cc(F)ccc2/C1=C\c1ccc([S+](C)[O-])cc1 [Sulindac] + O=C(c1cc(Cc2n[nH]c(=O)c3ccccc23)ccc1F)N1CCN(C(=O)C2CC2)CC1 [Olaparib] (partner 8 µM)
In short: as §1

[1] = compound: O=c1[nH]cc(F)c(=O)[nH]1 [5-Fluorouracil] + CC1(C)CCC(c2ccc(Cl)cc2)=C(CN2CCN(c3ccc(C(=O)NS(=O)(=O)c4ccc(N[C@H](CCN5CCOCC5)CSc5ccccc5)c(S(=O)(=O)C(F)(F)F)c4)cc3)CC2)C1 [Navitoclax] (partner 0.5 µM)
In short: as §1

Cell Line	relative viability (5-Fluorouracil + AZD7762; first compound 0.02 µM)	relative viability (5-Fluorouracil + AZD7762; first compound 0.2 µM)	relative viability (5-Fluorouracil + AZD7762; first compound 0.6325 µM)	relative viability (5-Fluorouracil + AZD7762; first compound 2 µM)	relative viability (Sulindac + Palbociclib; first compound 0.08 µM)	relative viability (Sulindac + Palbociclib; first compound 0.253 µM)	relative viability (Sulindac + Palbociclib; first compound 0.8 µM)	relative viability (Sulindac + Palbociclib; first compound 2.53 µM)	relative viability (Sulindac + Palbociclib; first compound 8 µM)	relative viability (Sulindac + Olaparib; first compound 0.08 µM)	relative viability (Sulindac + Olaparib; first compound 0.253 µM)	relative viability (Sulindac + Olaparib; first compound 0.8 µM)	relative viability (Sulindac + Olaparib; first compound 2.53 µM)	relative viability (Sulindac + Olaparib; first compound 8 µM)	relative viability ([1]; first compound 0.02 µM)	relative viability ([1]; first compound 0.2 µM)	relative viability ([1]; first compound 0.6325 µM)	relative viability ([1]; first compound 2 µM)
NCI-H358	0.595	0.505	0.477	0.293	0.135	0.139	0.129	0.139	0.136	0.809	0.667	0.526	0.573	0.62				
NCI-H520					0.231	0.239	0.221	0.244	0.278	0.36	0.328	0.302	0.313	0.283	0.81	1.19	0.873	0.406
NCI-H522	0.948	0.98	0.755	0.916	0.972	0.955	0.818	1.17	1.04	0.694	0.735	0.558	0.633	0.61				
NCI-H596	1.23	0.981	0.371	0.356						0.567	0.697		0.716	0.639	0.804	0.753	0.566	0.347
NCI-H650	0.883	0.464	0.328	0.422	0.313	0.347	0.32	0.28	0.402	0.442	0.431	0.341	0.425	0.472				
NCI-H661					0.405	0.433	0.458	0.376	0.449	0.971	0.789	0.59	0.742	0.836				
